Data on three compounds can be found in patent publication US10760110B2, “Antibiotic testing and screening system” (priority 2017, dated 2020).

In brackets after ≈: the same amount, converted by molar mass. Like-named read-outs stand apart in the source and are kept apart here. Where only a bound is given, the exact number is not on record here.

The subject of assay [1] is clinical K. pneumoniae isolate producing the carbapenemase OXA-48. The following applies: previous study; cited from earlier work.
Assay [2] shares this test system. Conditions: previous study; cited from earlier work. This is another data set of the same source.
The subject of assay [3] is K. pneumoniae NVT1001 harbouring the pACYC177 plasmid with blaOXA-48. The assay can be described thus: Broth microdilution MIC (CLSI). Conditions: Klebsiella pneumoniae; broth microdilution test; NVT1001 with pACYC177 blaOXA-48. It counts as cell-based. The method, then:
(§1) The MICs of antibiotics were determined using the Etest (Biodisk AB, Sweden) according to the manufacturer's instructions. The MICs from the Etest, which fall between standard two-fold dilutions, were rounded up to the next highest two-fold value. The MICs of ceftazidime and cefotaxime against K. pneumoniae NVT1001 harbouring the pACYC177 plasmid with blaOXA-48 were further determined using a broth microdilution test according to the recommendations of the CLSI,^25 and the results were interpreted according to the breakpoints established by the CLSI in 2017.^25 Meanwhile, due to the lack of CLSI breakpoints in 2016 and 2017, the results for cephalothin were interpreted according to the breakpoints established by the CLSI in 2015,^26 and the results for moxifloxacin were interpreted according to the breakpoints established by the EUCAST in 2017.^27

Assay [4] relates to A. baumannii KW1 strains with β-lactamase plasmids. As to the kind of experiment: Etest MIC of β-lactams, extended-spectrum β-lactamase, AmpC β-lactamase or carbapenemase (Table 18). The assay is classed as cell-based, Acinetobacter baumannii. The following applies: production of OXA-type carbapenemases. Summed up:
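A. baumannii KW1 transformed by electroporation with pYMAb5 or pYMAb5Tc carrying PCR-cloned resistance genes plus flanking regions from clinical plasmids. MICs by Etest; values between two-fold dilutions rounded up to the next two-fold value.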

In assay [5] the test system is K. pneumoniae NVT1001 harbouring the pACYC177 plasmid with blaOXA-48. As to the kind of experiment: Mouse peritonitis-sepsis infection model. It counts as in vivo, Klebsiella pneumoniae. Here is the method:
Pathogen-free 6- to 8-week-old male BALB/c mice were obtained from the National Laboratory Animal Center (Taiwan) and maintained in the pathogen-free vivarium of the Laboratory Animal Center of National Defense Medical Center (Taiwan). K. pneumoniae NVT1001 harbouring the pACYC177 plasmid with blaOXA-48 was cultured overnight at 37° C. in BHI broth and then diluted (1:100) in fresh BHI broth. The culture was incubated until the mid-exponential growth phase, and the cells were then washed once, resuspended in 0.85% sterile saline, and adjusted to the desired concentrations according to the OD600 value. The concentrations were verified by plating the cells to determine viable counts. […] Meanwhile, antibiotic doses were prepared in 0.85% sterile saline. At 1 hour post-inoculation, antibiotic or 0.85% sterile saline alone was administered as a single subcutaneous injection with a volume of 0.3 mL per dose. The mice were then monitored daily for 7 days to measure survival.

The subject of assay [6] is K. pneumoniae NVT1001 and its GyrA/ParC and ΔramR mutants. As to the kind of experiment: Etest MIC of quinolones, GyrA/ParC mutations and AcrAB-TolC overexpression (ΔramR) (Table 10). It counts as cell-based. Conditions: Klebsiella pneumoniae.
From the text: DNA fragments of the entire gyrA and parC sequences along with their flanking regions were amplified from K. pneumoniae strain NVT1001 using PCR with specific primer pairs and then cloned into the plasmid pUT-KB. The QuikChange site-directed mutagenesis kit (Stratagene) was used to generate mutations in the gyrA and parC genes in the plasmid using the methods described by the manufacturer. For homologous recombination, plasmids containing mutations in the gyrA or parC gene were transformed into E. coli S17-1 λpir^23 via electroporation and mobilized into K. pneumoniae strain NVT1001 via conjugation. Single-crossover strains were selected from BIND plates supplemented with kanamycin (50 mg/L), as the growth of non-K. pneumoniae contaminants is suppressed on BIND plates.^24 After the kanamycin-resistant transconjugants were selected, the insertion of plasmids was verified via PCR. After incubation in 20 mL BHI broth for 6 hours at 37° C. in the absence of kanamycin, the fully grown cultures were spread onto LB agar plates supplemented with 10% sucrose. After the double crossover occurred, the sucrose-resistant and kanamycin-susceptible colonies were selected, and the gene mutations were confirmed via PCR.
as §1

The test system of assay [7] is A. baumannii KW1 and its GyrA/ParC mutants. The assay can be described thus: Etest MIC of quinolones, GyrA and/or ParC mutations (Table 17). The assay is classed as cell-based. The following applies: Acinetobacter baumannii.
From the text: DNA fragments of the entire adeR, adeS, gyrA and parC along with their flanking regions were amplified from A. baumannii KW1 using PCR with specific primer pairs and then cloned into plasmid pUT-KB. The QuikChange site-directed mutagenesis kit (Stratagene) was used to generate mutations in the adeR, adeS, gyrA and parC genes in the plasmids using the methods described by the manufacturer. For homologous recombination, plasmids containing mutations in the adeR, adeS, gyrA or parC gene were transformed into E. coli S17-1 λpir^23 via electroporation and mobilized into A. baumannii KW1 via conjugation. Single-crossover strains were selected from Luria-Bertani (LB) plates supplemented with cefotaxime (1 μg/ml) and kanamycin ([…]), as the growth of non-A. baumannii contaminants is suppressed by cefotaxime (1 μg/ml). The kanamycin-resistant transconjugants were selected and the insertion of plasmids was verified via PCR. After incubation in 20 ml brain heart infusion (BHI) broth for 6 hours in the absence of kanamycin at 37° C., the fully grown cultures were spread onto LB plates supplemented with 10% sucrose. After the double crossover occurred, the sucrose-resistant and kanamycin-susceptible colonies were selected, and the gene mutations were confirmed via PCR.
as §1

In the case of `CC(C)(O/N=C(\C(=O)N[C@@H]1C(=O)N2C(C(=O)[O-])=C(C[n+]3ccccc3)CS[C@H]12)c1csc(N)n1)C(=O)O` [Ceftazidime], the “MIC relative to that of cefotaxime” value in assay [1] is 4 fold lower. Besides, in assay [2], the “ED50 (comparison)” value is on record as “lower than that of cefotaxime”. Inhibition of growth in assay [3] (MIC) required 0.5 µg/mL (≈ 0.915 µM). In assay [4], the “effects on the MIC” value is “no increase effects”. The “in vivo efficacy (comparison)” value in assay [5] (BALB/c mice) is recorded as “higher than that of cefotaxime”. Further, the ED50 in assay [5] (Klebsiella pneumoniae, sc, read-out: estimated ED50) was 30 mg/kg.
Consider `CCn1cc(C(=O)O)c(=O)c2cc(F)c(N3CCNCC3)cc21` [Norfloxacin, norfloxacin], for which the MIC was 2 µg/mL in assay [6] (D87N mutant (GyrA D87N)); 2 µg/mL in assay [6] (D87N/S80I mutant); 0.25 µg/mL in assay [6] (NVT1001, read-out: MIC); 0.25 µg/mL in assay [6] (S80I mutant (ParC S80I)); 2 µg/mL in assay [6] (S83F mutant (GyrA S83F)); 2 µg/mL in assay [6] (S83F/D87N mutant). The minimal inhibitory concentration (MIC) in assay [6] (S83F/D87N/S80I mutant) was 32 µg/mL; in assay [6] (S83F/S80I mutant) it was 8 µg/mL; in assay [6] (S83I mutant (GyrA S83I)) it was 2 µg/mL; in assay [6] (S83I/D87N mutant), 2 µg/mL; in assay [6] (S83I/D87N/S80I mutant), 64 µg/mL; in assay [6] (S83I/S80I mutant) it was 16 µg/mL. For the same compound, the MIC in assay [6] (S83L mutant (GyrA S83L)) was determined as 2 µg/mL; in assay [6] (S83L/D87N mutant), 2 µg/mL; in assay [6] (S83L/D87N/S80I mutant) it was 64 µg/mL; in assay [6] (S83L/S80I mutant), 8 µg/mL; in assay [6] (S83Y mutant (GyrA S83Y)), 2 µg/mL; in assay [6] (S83Y/D87N mutant) it was 2 µg/mL. For the same compound, the MIC in assay [6] (S83Y/D87N/S80I mutant) was 32 µg/mL; in assay [6] (S83Y/S80I mutant) it was 8 µg/mL; in assay [6] (ΔramR mutant), 2 µg/mL; in assay [6] (ΔramR/S83I mutant) it was 8 µg/mL; in assay [6] (ΔramR/S83I/D87N/S80I mutant), above 256 µg/mL; in assay [6] (ΔramR/S83I/S801 mutant), 128 µg/mL. The minimal inhibitory concentration (MIC) in assay [7] (E84K mutant) was found to be 4 µg/mL; in assay [7] (G78C mutant), 4 µg/mL; in assay [7] (KW1, read-out: MIC), 4 µg/mL; in assay [7] (S80L mutant), 4 µg/mL; in assay [7] (S80W mutant), 6 µg/mL; in assay [7] (S80Y mutant), 4 µg/mL. Further, the MIC in assay [7] (S83L mutant) is 24 µg/mL; in assay [7] (S83L/E84K mutant), above 256 µg/mL; in assay [7] (S83L/G78C mutant), above 256 µg/mL; in assay [7] (S83L/S80L mutant) it was above 256 µg/mL; in assay [7] (S83L/S80W mutant), above 256 µg/mL; in assay [7] (S83L/S80Y mutant), above 256 µg/mL.
For `CO/N=C(\C(=O)N[C@@H]1C(=O)N2C(C(=O)O)=C(COC(C)=O)CS[C@H]12)c1csc(N)n1` [Cefotaxime], the MIC in assay [3] worked out at 2 µg/mL (≈ 4.39 µM). In addition, in assay [5] (BALB/c mice, 30 mg/kg), the survival of mice result is given as “no mice survived”.
